Source: ChEMBL document CHEMBL3396986, “Novel β-amyloid aggregation inhibitors possessing a turn mimic” (Bioorg Med Chem Lett, 2015)
Active and inactive are the calls of the source. The rule behind the calls is not given here. *1 amine or outer side, *2 acyl side, *3 side chain or, on linkers, in order; H or OH if unused. Where a SMILES comes first, the peptide text is derived from it. [ ]: non-standard residue; d: D form. X1 = O=C(CCc1cccc2c1oc1c(CCN[*:1])cccc12)[*:2]; PEG8 = NCCOCCOCCOCCOCCOCCOCCOCCOCCC(=O)O; Met(O) = CS(=O)CC[C@H](N)C(=O)O

What was measured:
[1] = molecular target: Amyloid-beta precursor protein (Homo sapiens) (UniProt P05067); assay: Inhibition of pH-click Amyloid beta (1 to 42) (unknown origin) aggregation after 24 hrs by Thioflavin-T fluorescence assay; parameters: concentration or dose not given beside the values; details: concentration not given here
[2] = molecular target: Amyloid-beta precursor protein (Homo sapiens) (UniProt P05067); assay: Inhibition of pH-click Amyloid beta (1 to 42) (unknown origin) aggregation after 48 hrs by Thioflavin-T fluorescence assay; parameters: concentration or dose not given beside the values; details: concentration not given here
[3] = molecular target: Amyloid-beta precursor protein (Homo sapiens) (UniProt P05067); assay: Inhibition of authentic Amyloid beta (1 to 42) (unknown origin) aggregation 6 to 48 hrs by Thioflavin-T fluorescence assay
[4] = molecular target: Amyloid-beta precursor protein (Homo sapiens) (UniProt P05067); assay: Inhibition of pH-click Amyloid beta (1 to 42) (unknown origin) aggregation 6 to 48 hrs by Thioflavin-T fluorescence assay

Sequence of Amyloid-beta precursor protein (Homo sapiens) (P05067 whole entry): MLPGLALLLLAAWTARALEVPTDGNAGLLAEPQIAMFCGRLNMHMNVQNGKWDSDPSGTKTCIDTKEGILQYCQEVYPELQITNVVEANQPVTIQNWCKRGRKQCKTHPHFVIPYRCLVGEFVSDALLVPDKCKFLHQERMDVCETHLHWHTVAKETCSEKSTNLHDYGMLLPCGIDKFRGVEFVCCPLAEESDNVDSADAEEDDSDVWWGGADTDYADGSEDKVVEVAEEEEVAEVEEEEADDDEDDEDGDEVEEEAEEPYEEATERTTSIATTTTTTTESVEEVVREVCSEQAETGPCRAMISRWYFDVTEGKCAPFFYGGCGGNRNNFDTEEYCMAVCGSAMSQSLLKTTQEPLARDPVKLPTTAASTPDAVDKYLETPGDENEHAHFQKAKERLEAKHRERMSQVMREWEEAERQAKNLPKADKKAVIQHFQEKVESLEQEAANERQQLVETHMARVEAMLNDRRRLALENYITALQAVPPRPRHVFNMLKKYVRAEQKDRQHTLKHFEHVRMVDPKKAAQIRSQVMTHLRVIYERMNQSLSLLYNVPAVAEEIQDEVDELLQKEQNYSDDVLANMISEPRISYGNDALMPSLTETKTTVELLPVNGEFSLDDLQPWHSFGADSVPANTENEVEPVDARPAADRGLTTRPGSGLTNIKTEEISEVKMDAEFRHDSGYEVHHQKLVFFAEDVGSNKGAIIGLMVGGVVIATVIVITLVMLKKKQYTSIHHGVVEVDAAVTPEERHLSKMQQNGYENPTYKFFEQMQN

Compound | inhibition [1] [%] | inhibition [2] [%] | inhibition [3] | inhibition [4]
CC[C@H](C)[C@H](NC(=O)[C@H](C)NC(=O)CCc1cccc2c1oc1c(CCNC(=O)[C@H](CO)NC(=O)CNC(=O)[C@@H](NC(=O)[C@@H](N)CC(=O)O)C(C)C)cccc12)C(=O)N[C@H](C(=O)NCC(=O)NCCOCCOCCOCCOCCOCCOCCOCCOCCC(=O)O)[C@@H](C)CC (H-DVGS[X1]AIIG[PEG8]-OH) | < 5 | < 5 | – | –
CC[C@H](C)[C@H](NC(=O)[C@H](C)NC(=O)CNC(=O)CCc1cccc2c1oc1c(CCNC(=O)CNC(=O)[C@@H](NC(=O)[C@H](CC(=O)O)NC(=O)[C@@H](N)CCC(=O)O)C(C)C)cccc12)C(=O)N[C@H](C(=O)NCCOCCOCCOCCOCCOCCOCCOCCOCCC(=O)O)[C@@H](C)CC (H-EDVG[X1]GAII[PEG8]-OH) | 16 | 20 | – | –
CC[C@H](C)[C@H](NC(=O)CCc1cccc2c1oc1c(CCNC(=O)[C@H](CCCCN)NC(=O)[C@H](CC(N)=O)NC(=O)[C@H](CO)NC(=O)CN)cccc12)C(=O)NCC(=O)N[C@@H](CC(C)C)C(=O)N[C@@H](CC[S+](C)[O-])C(=O)NCCOCCOCCOCCOCCOCCOCCOCCOCCC(=O)O (some centres undefined) (H-GSNK[X1]IGL[Met(O)][PEG8]-OH) | 12 | < 5 | – | –
CC(C)C[C@H](NC(=O)CNC(=O)CCc1cccc2c1oc1c(CCNC(=O)CNC(=O)[C@H](CCCCN)NC(=O)[C@H](CC(N)=O)NC(=O)[C@@H](N)CO)cccc12)C(=O)N[C@@H](CC[S+](C)[O-])C(=O)N[C@H](C(=O)NCCOCCOCCOCCOCCOCCOCCOCCOCCC(=O)O)C(C)C (some centres undefined) (H-SNKG[X1]GL[Met(O)]V[PEG8]-OH) | 7 | < 5 | – | –
CC[C@H](C)[C@H](NC(=O)CCc1cccc2c1oc1c(CCNC(=O)[C@H](CC(N)=O)NC(=O)[C@H](CO)NC(=O)CNC(=O)[C@@H](N)C(C)C)cccc12)C(=O)N[C@H](C(=O)NCC(=O)N[C@@H](CC(C)C)C(=O)NCCOCCOCCOCCOCCOCCOCCOCCOCCC(=O)O)[C@@H](C)CC (H-VGSN[X1]IIGL[PEG8]-OH) | 49 | 39 | – | –
CC[C@H](C)[C@H](NC(=O)[C@H](C)NC(=O)CCc1cccc2c1oc1c(CCNC(=O)[C@H](CO)NC(=O)CNC(=O)[C@@H](NC(=O)[C@H](CC(=O)O)NC(=O)CCOCCOCCOCCOCCOCCOCCOCCOCCN)C(C)C)cccc12)C(=O)N[C@H](C(=O)NCC(=O)O)[C@@H](C)CC (H-[PEG8]DVGS[X1]AIIG-OH) | 10 | < 5 | – | –
CC[C@H](C)[C@H](NC(=O)[C@@H](NC(=O)[C@H](C)NC(=O)CNC(=O)CCc1cccc2c1oc1c(CCNC(=O)CNC(=O)[C@@H](NC(=O)[C@H](CC(=O)O)NC(=O)[C@H](CCC(=O)O)NC(=O)CCOCCOCCOCCOCCOCCOCCOCCOCCN)C(C)C)cccc12)[C@@H](C)CC)C(=O)O (H-[PEG8]EDVG[X1]GAII-OH) | 13 | < 5 | – | –
CC[C@H](C)[C@H](NC(=O)CCc1cccc2c1oc1c(CCNC(=O)[C@H](CCCCN)NC(=O)[C@H](CC(N)=O)NC(=O)[C@H](CO)NC(=O)CNC(=O)CCOCCOCCOCCOCCOCCOCCOCCOCCN)cccc12)C(=O)NCC(=O)N[C@@H](CC(C)C)C(=O)N[C@@H](CC[S+](C)[O-])C(=O)O (some centres undefined) (H-[PEG8]GSNK[X1]IGL[Met(O)]-OH) | 9 | < 5 | – | –
CC(C)C[C@H](NC(=O)CNC(=O)CCc1cccc2c1oc1c(CCNC(=O)CNC(=O)[C@H](CCCCN)NC(=O)[C@H](CC(N)=O)NC(=O)[C@H](CO)NC(=O)CCOCCOCCOCCOCCOCCOCCOCCOCCN)cccc12)C(=O)N[C@@H](CC[S+](C)[O-])C(=O)N[C@H](C(=O)O)C(C)C (some centres undefined) (H-[PEG8]SNKG[X1]GL[Met(O)]V-OH) | 13 | < 5 | – | –
CC[C@H](C)[C@H](NC(=O)CCc1cccc2c1oc1c(CCNC(=O)[C@H](CC(N)=O)NC(=O)[C@H](CO)NC(=O)CNC(=O)[C@@H](NC(=O)CCOCCOCCOCCOCCOCCOCCOCCOCCN)C(C)C)cccc12)C(=O)N[C@H](C(=O)NCC(=O)N[C@@H](CC(C)C)C(=O)O)[C@@H](C)CC (H-[PEG8]VGSN[X1]IIGL-OH) | 56 | 56 | – | –
CC(C)C[C@@H](NC(=O)[C@H](N)CCCCN)C(=O)N[C@@H](C(=O)N[C@H](Cc1ccccc1)C(=O)N[C@H](Cc1ccccc1)C(=O)N[C@H](C)C(=O)O)C(C)C (H-[dK][dL][dV][dF][dF][dA]-OH) | – | – | Active | Active
H-KLVFFA-OH | – | – | Active | Active
